One data set deals with T1, topoisomerase I (Homo sapiens, UniProt P11387).
T1 sequence (P11387 1-765): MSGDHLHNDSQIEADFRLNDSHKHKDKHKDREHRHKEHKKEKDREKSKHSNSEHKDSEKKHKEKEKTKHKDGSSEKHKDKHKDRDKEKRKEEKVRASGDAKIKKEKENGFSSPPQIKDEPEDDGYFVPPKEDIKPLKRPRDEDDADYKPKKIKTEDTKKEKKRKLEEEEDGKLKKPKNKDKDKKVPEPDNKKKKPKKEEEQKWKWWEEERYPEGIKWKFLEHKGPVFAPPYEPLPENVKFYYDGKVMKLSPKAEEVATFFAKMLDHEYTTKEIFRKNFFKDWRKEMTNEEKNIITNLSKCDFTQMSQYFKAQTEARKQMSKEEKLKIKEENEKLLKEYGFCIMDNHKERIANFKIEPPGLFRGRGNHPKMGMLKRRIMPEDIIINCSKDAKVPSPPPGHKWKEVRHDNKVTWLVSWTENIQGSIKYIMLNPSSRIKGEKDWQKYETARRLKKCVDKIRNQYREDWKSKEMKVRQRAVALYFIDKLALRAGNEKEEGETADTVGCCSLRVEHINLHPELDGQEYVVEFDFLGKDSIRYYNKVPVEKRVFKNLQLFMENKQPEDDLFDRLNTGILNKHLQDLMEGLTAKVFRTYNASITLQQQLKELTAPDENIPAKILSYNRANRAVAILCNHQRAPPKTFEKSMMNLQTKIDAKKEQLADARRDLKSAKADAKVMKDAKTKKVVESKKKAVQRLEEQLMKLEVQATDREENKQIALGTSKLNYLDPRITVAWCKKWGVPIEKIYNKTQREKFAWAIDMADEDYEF
The conditions noted are these: compared with SN-38 and topotecan; cited from earlier work.

The test system of the next data set is various cancer cells. To be noted: against various cancer cells; cited from earlier work.
The subject of a further data set is human tumor. The conditions noted are these: human tumor subcutaneously transplanted mouse model; cited from earlier work.
The nature of data set [1]: Self-degradation of released drug derivative with aminal structure. It is filed as physicochemical.
The target of data set [2] is T2, CHOK1 cells expressing human TROP2 (Homo sapiens, UniProt P09758).
T2 construct: expressed in transfected cells; host or cells: CHOK1
T2 sequence (P09758 27-323): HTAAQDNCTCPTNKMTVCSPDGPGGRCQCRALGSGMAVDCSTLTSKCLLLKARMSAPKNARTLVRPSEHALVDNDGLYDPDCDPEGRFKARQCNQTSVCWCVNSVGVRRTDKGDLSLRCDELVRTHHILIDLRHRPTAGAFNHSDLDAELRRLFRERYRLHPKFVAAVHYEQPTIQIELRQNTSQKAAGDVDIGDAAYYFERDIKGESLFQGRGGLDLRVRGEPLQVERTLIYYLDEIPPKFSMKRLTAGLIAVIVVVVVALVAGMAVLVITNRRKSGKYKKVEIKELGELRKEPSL
Description: FACS analysis of TINA1 antibody on TROP2-overexpressing cells. The format is cell-based. How it is done:
Because the antigen of the TINA1 antibody was predicted to be TROP2 from the band pattern, overexpression analysis by gene transfer of cDNA was conducted without mass spectrometry. […] Similar FACS analysis was conducted using a lung cancer cell line PC14, a lung cancer cell line NCI-H322, a lung cancer cell line NCI-H2122, a lung cancer cell line LCAM1, a lung cancer cell line LC2/ad, a pancreatic cancer cell line MIAPaCa2, a pancreatic cancer cell line PK-1, a prostate cancer cell line PC3, a colorectal cancer cell line HCT116, a melanoma cell line A375, an ovarian cancer cell line SKOV3, a hematopoietic tumor cell line RPMI8226, a hematopoietic tumor cell line K562, PBMC (human peripheral blood mononuclear cells), and human platelet. All of the examined lung cancer cell lines were TROP2-positive, and PC3, PK1, and SKOV3 were positive as the cell lines except for the lung cancer ones. On the other hand, all of the normal blood cells were negative.
On the technique in general: Flow cytometry measures light scatter and fluorescence of single cells or particles in a stream.

For the next data set, the system named is NCI-H322 cells. Description: Internalization activity and immunotoxin activity using DT3C. It is filed as cell-based, human. From the text:
4-1) Antibody internalization activity evaluation system A recombinant fusion protein DT3C was produced for the purpose of measuring internalization activity and immunotoxin activity of an antibody. This DT3C is a protein having a catalytic domain of diphtheria toxin (DT) and three antibody-binding regions of protein G. DT3C specifically binds to an Fc moiety of an antibody, is stable, and induces cell death by inhibiting protein synthesis when taken up into cells. By use of this system, the internalization effect of antibody and the cytocidal effect thereof by immunotoxin can be observed at the same time (Yamaguchi, M., Hamada, H., et al., Biochemical and Biophysical Research Communications 454 (2014) 600-603).
4 μg/mL of DT3C was added at 25 μL/well to a 96-well plate, further the culture supernatants of 11 hybridomas obtained by the method of Example 1 or a method equivalent thereto were each added at 25 μL/well to the plate, and the plate was incubated at room temperature for 30 minutes. […] After incubation for 1 hour in a CO2 incubator of 37° C., the number of live cells was measured using a microplate reader (OD450 to OD640, infinite 200, Tecan Trading AG).
Each diluted solution of DT3C (0, 0.004, 0.04, 0.4, 4, or 40 μg/mL) was added at 25 μL/well to a 96-well plate, then each antibody (40 μg/mL) was added at 25 μL/well to the plate, and the plate was incubated at room temperature for 30 minutes. […] After incubation for 1 hour in a CO2 incubator of 37° C., the number of live cells was measured using a plate reader (OD450 to OD640).
Anti-TROP2 antibodies TINA1 (immunogen: lung cancer line NCI-H322), KCL7A3 and KCL2D6 (immunogen: pancreatic cancer cell line KCL-MOH1), Pr1E11 and Pr8H10 (immunogen: prostate cancer cell line Pc-1), and NY16 and NY17 (immunogen: pancreatic cancer cell line PK-1) obtained by the method of Example 1 or a method equivalent thereto, and commercially available 77220 (R&D Systems Inc.) were evaluated for their internalization activity and immunotoxin activity in the same manner as in Example 4-3).

As for `CC[C@@]1(O)C(=O)OCc2c1cc1n(c2=O)Cc2c-1nc1cc(F)c(C)c3c1c2[C@@H](N)CC3` [exatecan, (1S,9S)-1-amino-9-ethyl-5-fluoro-2,3-dihydro-9-hydroxy-4-methyl-1H,12H-benzo[de]pyrano[3′,4′:6,7]indolizino[1,2-b]quinolin-10,13(9H,15H)-dione], the “inhibitory activity on topoisomerase I” value on topoisomerase I was “higher than SN-38”. The “in vitro cytocidal activity” value with various cancer cells was “higher in vitro cytocidal activity”. For the same molecule, in the data set with human tumor, the antitumor effect result is “potent antitumor effect”.

Consider `CCC1(O)C(=O)OCc2c1cc1n(c2=O)Cc2c-1nc1cc(F)c(C)c3c1c2C(NC(=O)COCN)CC3` (centres unmarked) [NH2—CH2—O—CH2—C(═O)—(NH-DX)], for which the “stability of the aminal structure (self-degradation to HO—CH2—C(═O)—(NH-DX))” value in data set [1] is on record as “unstable”.

B1: TINA1: antibody produced by the TROP2 hybridoma TINA1; mouse anti-TROP2 monoclonal antibody (antibody, listed as Mus musculus, V domains shown)
VH: QIQLVQSGPELKKPGETVRISCKASGYTFTTAGMQWVQKMPGKGLKWIGWINTHSGVPKYAEDFKGRFAFSLETSASTAYLQISNLKNEDTTTYFCARSGFGSSYWYFDVWGAGTAVTVSS
VL: DIVMTQSHKFMSTSVGDRVSITCKASQDVSTAVAWYQQKPGQSPKLLIYSASYRYTGVPDRFTGSGSGTAFTFTISSVQAEDLAVYYCQQHYITPLTFGAGTKLELKRA
For B1, the FACS response result in data set [2] is recorded as “strong positive response”. The “internalization activity and immunotoxin activity” value is “strongest activity” in the data set with NCI-H322 cells (among the 8 anti-TROP2 antibodies, as Example 4-3, FIG. 12); “strongest internalization activity and immunotoxin activity” in the data set on NCI-H322 cells (antibody 40 μg/mL + DT3C 0-40 μg/mL, among antibodies against CD59, CD71, EGFR, EpCAM, TROP2, FIG. 11); “strong internalization activity and immunotoxin activity” with NCI-H322 cells (hybridoma culture supernatant + DT3C 4 μg/mL, NCI-H322 cells, 3 days, FIG. 10).

These data come from patent publication US20250257146A1, “ANTI-TROP2 ANTIBODY-DRUG CONJUGATE” (DAIICHI SANKYO COMPANY, LIMITED, priority 2013, published 2025).
